Assay results reported in publication PMC8453936, “Development and in vitro Profiling of Dual FXR/LTA4H Modulators” (Chemmedchem, 2021).

How the values were obtained:
recombinant human LTA4H = molecular target: T1, recombinant human LTA4H (Homo sapiens, UniProt P09960); details: for LTA4H max. inhib.: LTA4H inhibition at the highest tested concentration (up to 100 μM), mean±S.E.M., n=3
T1 sequence (P09960 1-611): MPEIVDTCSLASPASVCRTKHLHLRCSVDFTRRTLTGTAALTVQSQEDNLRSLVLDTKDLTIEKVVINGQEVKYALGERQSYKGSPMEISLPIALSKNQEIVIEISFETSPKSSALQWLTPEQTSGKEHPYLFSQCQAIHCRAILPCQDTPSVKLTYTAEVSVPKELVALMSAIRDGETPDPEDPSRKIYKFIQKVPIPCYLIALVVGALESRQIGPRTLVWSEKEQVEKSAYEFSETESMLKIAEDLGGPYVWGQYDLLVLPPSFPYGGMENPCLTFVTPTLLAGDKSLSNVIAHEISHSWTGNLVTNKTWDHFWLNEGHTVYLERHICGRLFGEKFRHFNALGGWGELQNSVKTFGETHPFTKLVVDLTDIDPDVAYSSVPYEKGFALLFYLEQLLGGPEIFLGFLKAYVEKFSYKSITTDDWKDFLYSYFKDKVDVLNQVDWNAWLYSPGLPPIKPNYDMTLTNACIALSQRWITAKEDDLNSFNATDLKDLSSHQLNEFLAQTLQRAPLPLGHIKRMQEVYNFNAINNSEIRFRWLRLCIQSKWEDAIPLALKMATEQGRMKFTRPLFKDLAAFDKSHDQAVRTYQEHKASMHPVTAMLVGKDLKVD
Description: FXR modulation by 3–20 was characterized in a cellular (HeLa, transiently transfected) full‐length FXR reporter gene assay employing the human FXR response element from the promoter region of bile salt export protein (BSEP) to govern firefly luciferase expression as reporter gene.[26, 27] FXR and its natural heterodimer partner retinoid X receptor (RXR) were constitutively over‐expressed and a constitutively expressed renilla luciferase was present as internal control for transfection efficiency and cellular health.
LTA4H assay. […] The assay was performed in black polystyrol 96‐well plates in a final volume of 100 μL. Test compound solution in DMSO (1 μL) or DMSO alone as control were incubated with 89 μl protein mixture (containing LTA4H, buffer and Triton‐X‐100). After 30 min, 10 μl of substrate mixture (containing L‐arginin‐7‐amido‐4‐methylcumarine and DMSO in buffer) were added. […] A blank measurement containing no protein was performed and treated as 0 % conversion control. All samples were measured in triplicates and each experiment was conducted in three independent repeats.

recombinant human sEH = molecular target: T2, recombinant human sEH (Homo sapiens, UniProt P34913); assay: sEH activity assay with PHOME as fluorogenic substrate; assay type: biochemical; details: mean±S.E.M., n=3
T2 construct: Human sEH full length protein was purified as described by Lukin et al; made in house; host or cells: E. coli BL21 (DE3)
T2 sequence (P34913 1-555): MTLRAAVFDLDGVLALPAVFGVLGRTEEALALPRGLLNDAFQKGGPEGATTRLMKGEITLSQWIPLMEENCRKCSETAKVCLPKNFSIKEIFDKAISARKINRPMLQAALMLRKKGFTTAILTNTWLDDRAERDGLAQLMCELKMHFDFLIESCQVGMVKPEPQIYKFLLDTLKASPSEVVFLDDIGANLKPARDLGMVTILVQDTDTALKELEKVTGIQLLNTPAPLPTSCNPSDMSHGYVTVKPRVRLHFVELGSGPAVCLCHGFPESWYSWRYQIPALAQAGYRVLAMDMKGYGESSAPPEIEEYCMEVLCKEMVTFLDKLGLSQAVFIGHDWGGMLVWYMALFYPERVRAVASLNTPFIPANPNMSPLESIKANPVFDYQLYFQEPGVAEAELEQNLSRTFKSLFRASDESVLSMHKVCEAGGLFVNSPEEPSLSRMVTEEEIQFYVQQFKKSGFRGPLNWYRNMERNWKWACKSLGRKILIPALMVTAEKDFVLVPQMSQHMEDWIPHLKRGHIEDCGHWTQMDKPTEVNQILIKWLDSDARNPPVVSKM

full-length human FXR = molecular target: T3, full-length human FXR (Homo sapiens, UniProt Q96RI1); details: mean±S.E.M., n≥3, previously reported, cited from earlier work
T3 construct: coding for the full‐length human nuclear receptors FXR and RXRα; expressed in transfected cells; host or cells: HeLa
T3 sequence (Q96RI1 1-486): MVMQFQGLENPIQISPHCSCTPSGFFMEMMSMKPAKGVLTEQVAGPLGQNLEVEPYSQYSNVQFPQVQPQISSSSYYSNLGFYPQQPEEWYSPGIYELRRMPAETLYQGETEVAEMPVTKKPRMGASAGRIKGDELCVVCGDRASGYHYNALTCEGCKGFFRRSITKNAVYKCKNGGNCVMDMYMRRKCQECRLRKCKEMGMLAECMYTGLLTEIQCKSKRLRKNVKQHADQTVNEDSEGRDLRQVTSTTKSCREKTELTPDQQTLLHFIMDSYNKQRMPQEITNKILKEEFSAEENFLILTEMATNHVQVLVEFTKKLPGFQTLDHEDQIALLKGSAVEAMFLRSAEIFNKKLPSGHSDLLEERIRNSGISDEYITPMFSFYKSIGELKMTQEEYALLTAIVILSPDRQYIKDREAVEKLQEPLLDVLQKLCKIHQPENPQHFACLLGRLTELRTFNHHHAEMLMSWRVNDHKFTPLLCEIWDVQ
T3 sequence (P19793 1-462 partner): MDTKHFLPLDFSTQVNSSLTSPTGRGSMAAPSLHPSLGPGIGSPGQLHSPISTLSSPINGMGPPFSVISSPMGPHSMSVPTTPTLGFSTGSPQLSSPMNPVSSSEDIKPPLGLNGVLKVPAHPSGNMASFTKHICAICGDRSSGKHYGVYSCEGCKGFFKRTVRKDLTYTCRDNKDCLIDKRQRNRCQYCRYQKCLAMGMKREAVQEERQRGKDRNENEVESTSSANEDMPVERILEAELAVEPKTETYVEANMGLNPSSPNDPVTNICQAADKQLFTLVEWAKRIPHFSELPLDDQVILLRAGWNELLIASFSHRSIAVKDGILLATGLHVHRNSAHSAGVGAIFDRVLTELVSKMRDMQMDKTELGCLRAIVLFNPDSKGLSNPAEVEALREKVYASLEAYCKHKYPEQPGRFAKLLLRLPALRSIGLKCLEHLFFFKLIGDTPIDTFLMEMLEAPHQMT

| IC50 (recombinant human LTA4H) [nM] | LTA4H max. inhib. (recombinant human LTA4H) [%] | IC50 (recombinant human sEH; read-out: sEH inhibition IC50) [nM] | sEH inhibition (recombinant human sEH; at 100 μM) [% inhibition at 100 μM] | SMILES | FXR efficacy (maximum FXR activation relative to 3 μM GW4064) (full-length human FXR; 3 μM GW4064 = 100 % activation) [%] | EC50 (full-length human FXR; full-length FXR reporter gene assay, BSEP promoter, HeLa) [nM] |
| --- | --- | --- | --- | --- | --- | --- |
| 450 ± 20 | 98.9±0.1 | 68000 | – | O=C(O)c1ccnc(NC(=O)c2ccc(OCCCc3ccccc3)cc2)c1 [compound 19, 2‐(4‐(3‐Phenylpropoxy)benzamido)isonicotinic acid] | – | – |
| 140 ± 10 | 98.8±0.1 | – | 6±1 | O=C(O)c1cccc(NC(=O)c2ccc(OCCCc3ccccc3)cc2)c1 [compound 8] | 22±1 | 29 ± 6 |
